# Read-outs that look alike come from different tables or passages of the source. Residues, ends and D or L forms follow the SMILES beside them.
# Columns and labels:
# [1] = system: E. coli strain BL21; assay: Propidium iodide uptake by FACS; assay type: cell-based, Escherichia coli; settings: 2, 4, 8, 16 or 32 μM peptide in saline, 1 h, ambient temperature, 1 × 10^4 events
# Method: For determination of bacterial cell death via membrane disruption, bacterial cells were subjected to propidium iodide (PI) uptake and quantified using fluorescence-activated cell sorting (FACS). E. coli strain BL21 were first diluted to a OD 600 of 1.0. Cells were washed three times in 0.85% NaCl (saline) solution and resuspended in either 1.5 mL of either saline, 70% isopropyl alcohol, or peptide diluted to either 2, 4, 8, 16 or 32 μM in saline for 1 h at ambient temperature. Following incubation, cells were pelleted and resuspended in 1 mL of saline with 1.5 μL/mL propidium iodide and incubated in the dark for 15 min. The samples were washed again with saline three times and run through a Beckman Coulter FC500 flow cytometer. The FL3 detector, using the propidium iodine PE-Alexa Fluor 610 emission filter, was used to sort the cells. 1 × 10^4 events were collected for each sample run.
# [2] = system: E. coli (BL21); assay type: cell-based, Escherichia coli
# Summary of the method: (§1)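 MIC in Mueller-Hinton broth with 1 × 10^6 CFU/mL bacteria, overnight cultures grown first in LB (E. coli, P. aeruginosa, S. aureus) or Todd-Hewitt (S. pyogenes); growth read as OD 600. Library members screened at half the parent peptide MIC; MBC as lowest concentration giving no colonies after plating MIC wells, 37°C overnight.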
# [3] = system: S. pyogenes (M1); assay type: cell-based, Streptococcus pyogenes; settings: for MBC: M1; for MIC: M1, 16 h
# Summary of the method: as §1
# [4] = system: S. aureus (USA300); assay type: cell-based, Staphylococcus aureus; settings: for MBC: USA300; for MIC: USA300, 16 h
# Summary of the method: as §1
# [5] = system: P. aeruginosa (PAO1); assay type: cell-based, Pseudomonas aeruginosa; settings: for MBC: PAO1
# Summary of the method: as §1
# [6] = system: sheep erythrocytes; assay type: cell-based; settings: red cells of sheep, 1 h
# Summary of the method: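 Washed defibrinated sheep blood, diluted 1:25 in PBS, incubated 1 h at 37 °C with peptide at the MIC-assay concentrations (sample:blood 1:10). Haemoglobin release read as supernatant absorbance at 450 nm; percent haemolysis normalised to PBS and 10% Triton controls.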
# [7] = system: GFP-expressing E. coli strain BL21; assay: Live imaging of GFP leakage; assay type: cell-based, Escherichia coli; settings: 16 μM peptide, 8 h, 37°C, images every 10 min
# Method: To observe bacterial cell death in the presence of peptide in real time, fluorescence microscopy was employed using GFP-expressing E. coli strain BL21. MIC assays were conducted against BL21-GFP to determine the peptide concentration used for microscopy experiments. The peptide was suspended in PBS and added to diluted bacterial cells. GFP-expressing E. coli in the presence of peptide were imaged on the Eclipse Ti-E inverted microscope (Nikon) using GFP and DIC channels for 8 h at 37°C, with images taken every 10 min ([Fields et al., 2020]). Syn-xiamencin-2, a peptide with no detectable antimicrobial activity below 128 μM was also evaluated as a negative peptide candidate control.
# [8] = system: human keratinocyte cell line (HaCaT); assay: HaCaT cytotoxicity, ethidium homodimer assay; assay type: cell-based; settings: 16 h, 37°C, DMEM + 10% FBS, normalised to saponin, triplicate
# Method: To assess cytotoxicity of optimized peptides in mammalian cells, an immortalized human keratinocyte cell line (HaCaT) was used. Cells were grown to 80% confluency in 24-well culture dishes and washed with PBS (Thermo Fisher). […] After incubation, the cells were washed with sterile PBS, followed by a covered incubation with 4 μM ethidium homodimer (Molecular Probes) for 30 min at room temperature. Fluorescence was measured using the Synergy H1 Microplate Reader set to 528 nm excitation, 617 nm emission, and a cutoff value of 590 nm. Saponin (0.1% wt/vol, Sigma) was added to each well followed by a covered incubation for 20 min at room temperature, followed by another measurement on the Synergy H1 Microplate Reader using the same settings to normalize readings to the number of cells per well and determine the percent cytotoxicity.
# [9] = E. coli BL21, running text b43, unit printed nm
Structure (SMILES),PI positive cells [1],MIC ([2]; BL21) [µM],"MIC ([2]; BL21, 16 h) [µM]","MBC [2, 9]","MIC [2, 9]",MBC [3] [µM],MIC [3] [µM],MBC [4] [µM],MIC [4] [µM],MBC [5] [µM],"MIC ([5]; PAO1, 16 h) [µM]",Percent Hemolysis [6] [%],GFP leakage / change in fluorescence [7],MBC ([2]; BL21) [µM],concentration at which peptide is cytotoxic [8] [µM],"MIC ([5]; P. aeruginosa PAO1, broth microdilution, Mueller-Hinton broth, 1 × 10^6 CFU/mL, 16 h, OD600, triplicate) [µM]",MIC ([2]; E. coli BL21) [µM]
"CC(C)O [Isopropyl alcohol, isopropyl alcohol, reference compound]",large peak within the PI florescence range,–,–,–,–,–,–,–,–,–,–,–,–,–,–,–,–
CC[C@H](C)[C@H](NC(=O)[C@H](CCCCN)NC(=O)[C@H](CCCCN)NC(=O)CNC(=O)[C@H](CCC(=O)O)NC(=O)[C@H](CCC(N)=O)NC(=O)[C@@H](NC(=O)[C@@H](NC(=O)[C@H](CCCCN)NC(=O)[C@H](CCCCN)NC(=O)[C@H](CC(C)C)NC(=O)[C@H](CCCNC(=N)N)NC(=O)[C@H](CCC(N)=O)NC(=O)[C@H](Cc1ccccc1)NC(=O)[C@@H](NC(=O)[C@H](CCCCN)NC(=O)[C@H](CCC(=O)O)NC(=O)[C@@H](NC(=O)[C@H](Cc1c[nH]c2ccccc12)NC(=O)[C@H](C)N)[C@@H](C)O)[C@@H](C)CC)[C@@H](C)O)[C@@H](C)CC)C(=O)N[C@@H](C)C(=O)N[C@@H](CCCCN)C(=O)N[C@@H](CCCNC(=N)N)C(=O)N[C@@H](C)C(=O)N[C@@H](Cc1c[nH]c2ccccc12)C(=O)O [Syn-larvacin-39] (H-AWTEKIFQRLKKTIQEGKKIAKRAW-OH; N-terminus and C-terminus assumed),–,0.0156,<0.0156,below 15.6 nM,below 15.6 nM,4,2,4,1,64,16,14.4,significant decrease in fluorescence,–,–,–,–
CC[C@H](C)[C@H](NC(=O)[C@H](CCCNC(=N)N)NC(=O)[C@H](CCC(N)=O)NC(=O)[C@@H](NC(=O)[C@H](Cc1c[nH]c2ccccc12)NC(=O)[C@H](C)N)[C@@H](C)O)C(=O)N[C@@H](CCCCN)C(=O)N[C@@H](C)C(=O)N[C@@H](Cc1ccc(O)cc1)C(=O)N[C@@H](CC(C)C)C(=O)N[C@@H](CCCNC(=N)N)C(=O)N[C@@H](CCCNC(=N)N)C(=O)N[C@@H](CCC(=O)O)C(=O)N[C@H](C(=O)N[C@@H](CCCNC(=N)N)C(=O)N[C@@H](CCCCN)C(=O)N[C@@H](CCCNC(=N)N)C(=O)NCC(=O)N[C@@H](CCCNC(=N)N)C(=O)N[C@@H](CCCCN)C(=O)N[C@@H](C)C(=O)N[C@H](C(=O)N[C@H](C(=O)N[C@@H](C)C(=O)N[C@@H](Cc1c[nH]c2ccccc12)C(=O)O)[C@@H](C)CC)C(C)C)[C@@H](C)CC [Syn-sordellicin-19] (H-AWTQRIKAYLRREIRKRGRKAVIAW-OH; N-terminus and C-terminus assumed),–,–,2,–,–,2,2,>128,>128,16,8,–,–,2,≥ 64,–,–
CC[C@H](C)[C@H](NC(=O)[C@H](CCCNC(=N)N)NC(=O)[C@H](CCC(N)=O)NC(=O)[C@H](Cc1c[nH]c2ccccc12)NC(=O)CNC(=O)[C@H](C)N)C(=O)N[C@@H](CCCCN)C(=O)N[C@@H](C)C(=O)N[C@@H](Cc1ccc(O)cc1)C(=O)N[C@@H](CC(C)C)C(=O)N[C@@H](CCCNC(=N)N)C(=O)N[C@@H](CCCNC(=N)N)C(=O)N[C@@H](CCC(=O)O)C(=O)N[C@H](C(=O)N[C@@H](CCCNC(=N)N)C(=O)N[C@@H](CCCCN)C(=O)N[C@@H](CCCNC(=N)N)C(=O)NCC(=O)N[C@@H](CCCNC(=N)N)C(=O)N[C@@H](CCCCN)C(=O)N[C@@H](C)C(=O)N[C@H](C(=O)N[C@H](C(=O)N[C@@H](C)C(=O)N[C@@H](Cc1c[nH]c2ccccc12)C(=O)O)[C@@H](C)CC)C(C)C)[C@@H](C)CC [Syn-sordellicin-43] (H-AGWQRIKAYLRREIRKRGRKAVIAW-OH; N-terminus and C-terminus assumed),–,–,1,–,–,4,2,32,32,4,–,11.2,significant decrease in fluorescence,1,–,2,–
CC[C@H](C)[C@H](NC(=O)[C@H](CCCNC(=N)N)NC(=O)CNC(=O)[C@@H](NC(=O)[C@H](CCCCN)NC(=O)[C@H](CCCNC(=N)N)NC(=O)[C@@H](NC(=O)[C@H](Cc1ccc(O)cc1)NC(=O)[C@H](CCCNC(=N)N)NC(=O)[C@H](CCCNC(=N)N)NC(=O)[C@H](CC(C)C)NC(=O)[C@H](CCC(=O)O)NC(=O)[C@H](CCCCN)NC(=O)[C@H](C)NC(=O)[C@@H](NC(=O)[C@H](CCCNC(=N)N)NC(=O)[C@H](CC(N)=O)NC(=O)[C@@H](NC(=O)CNC(=O)[C@H](C)N)[C@@H](C)O)[C@@H](C)CC)[C@@H](C)CC)C(C)C)C(=O)N[C@@H](C)C(=O)N[C@@H](CCCNC(=N)N)C(=O)N[C@@H](CCCCN)C(=O)N[C@@H](Cc1c[nH]c2ccccc12)C(=O)N[C@@H](Cc1c[nH]c2ccccc12)C(=O)O [Syn-sordellicin-64] (H-AGTNRIAKELRRYIRKVGRIARKWW-OH; N-terminus and C-terminus assumed),–,–,–,–,–,1,1,8,8,8,8,18.8,–,0.5,≥ 32,–,0.25
CC[C@H](C)[C@H](NC(=O)[C@H](CCCNC(=N)N)NC(=O)CNC(=O)[C@@H](NC(=O)[C@H](CCCCN)NC(=O)[C@H](CCCNC(=N)N)NC(=O)[C@@H](NC(=O)[C@H](Cc1ccc(O)cc1)NC(=O)[C@H](CCCNC(=N)N)NC(=O)[C@H](CCCNC(=N)N)NC(=O)[C@H](CC(C)C)NC(=O)[C@H](CCC(=O)O)NC(=O)[C@H](CCCCN)NC(=O)[C@H](C)NC(=O)[C@@H](NC(=O)[C@H](CCCNC(=N)N)NC(=O)[C@H](CC(N)=O)NC(=O)[C@@H](NC(=O)CNC(=O)[C@H](C)N)[C@@H](C)O)[C@@H](C)CC)[C@@H](C)CC)C(C)C)C(=O)N[C@@H](C)C(=O)N[C@@H](CCCNC(=N)N)C(=O)N[C@@H](CCCCN)C(=O)N[C@@H](CCCCN)C(=O)N[C@@H](Cc1c[nH]c2ccccc12)C(=O)O [Syn-sordellicin-88] (H-AGTNRIAKELRRYIRKVGRIARKKW-OH; N-terminus and C-terminus assumed),–,–,1,–,–,1,1,64,64,16,16,11.7,–,1,≥ 64,–,–
CC[C@H](C)[C@H](NC(=O)[C@H](CCCCN)NC(=O)CNC(=O)[C@H](Cc1ccccc1)NC(=O)[C@H](CCCCN)NC(=O)[C@H](CCCNC(=N)N)NC(=O)[C@H](CC(C)C)NC(=O)[C@H](Cc1ccc(O)cc1)NC(=O)[C@H](CCC(=O)O)NC(=O)[C@H](CC(C)C)NC(=O)[C@H](CC(C)C)NC(=O)[C@H](CCC(=O)O)NC(=O)[C@H](CCCCN)NC(=O)[C@@H](NC(=O)[C@H](CC(C)C)NC(=O)[C@H](CCCNC(=N)N)NC(=O)[C@H](CC(N)=O)NC(=O)[C@H](C)NC(=O)[C@H](CCCCN)NC(=O)[C@H](C)N)[C@@H](C)O)C(=O)N[C@@H](C)C(=O)N[C@@H](CCCNC(=N)N)C(=O)N[C@@H](CCCCN)C(=O)N[C@@H](C)C(=O)N[C@@H](Cc1c[nH]c2ccccc12)C(=O)O [Syn-xiamencin-96] (H-AKANRLTKELLEYLRKFGKIARKAW-OH; N-terminus and C-terminus assumed),–,–,2,–,–,4,4,8,8,16,16,20.0,–,2,–,–,–

# From publication PMC7689250, “Synthetic Peptide Libraries Designed From a Minimal Alpha-Helical Domain of AS-48-Bacteriocin Homologs Exhibit Potent Antibacterial Activity” (Frontiers in Microbiology, 2020)
